Source: patent US20080305186A1, “Method and Composition for the Treatment of Cardiac Hypertrophy” (BOARD OF REGENTS, THE UNIVERSITY OF TEXAS SYSTEM, priority 2007, published 2008)
“Also recorded” adds a separate entry of the source.

Tests used:
[1] = test system: isoproterenol induced cardiac hypertrophy; assay: Isoproterenol-induced cardiac hypertrophy in mice: heart size, heart weight ratios, histology; assay type: in vivo, C57BL/6 male mice
Description: (§1) All animal and mouse studies and/or models of cardiac hypertrophy were conducted in accordance with the standards set forth in the Guide for the Care and Use of Laboratory Animals (NIH Publication No. 85-23, revised 1996) and were approved by our Institutional Animal Care and Use Committee. Eight week-old C57BL/6 male mice (Jackson Laboratory) were given isoproterenol (Sigma Aldrich) at 40 mg·kg^−1d^−1 administered S.Q. via micro-osmotic pump insertion (ALZET 1007D). Briefly, animals were anesthetized with isoflurane (1.5%) and oxygen (98.5%) using an animal ventilator (Surgivet), an incision (1 cm) was made on the back between the shoulder blades, and micro-osmotic pumps containing isoproterenol dissolved in a saline solution (0.9% NaCl) were inserted into the infrascapular subcutaneous tissue.
Doxycycline was given in drinking water at 6 mg mL^−1 (Sigma Aldrich) containing 5% sucrose unless specified otherwise. Control animals were given 5% sucrose water. […] Water was added to the mix 0.8:1 (water weight to powder weight ratio) and the resulting paste diced and heated at 60° C. overnight.
Histology. Animal hearts were excised, fixated with 10% phosphate-buffered formalin for 48 hours, and then embedded in paraffin. Cross-sectional slices in the minor axis were obtained with a microtome and the slices stained using Mayer's hematoxylin and eosin (H&E).
Statistical analysis of the data includes values presented are expressed in mean ±S.E.M. All comparisons between groups were performed using a one way ANOVA followed by the Newman-Keuls test. Differences were considered to be statistically significant when P<0.05.
P-values are obtained from a one way ANOVA. […] The control group (isoproterenol) received regular chow and 7% sucrose water. Each circle is the Heart to Body weights ratio obtained for a mouse, while the dashes are the average for each group.

[2] = cited from earlier work
[3] = test system: CREB; assay: Western blot of phosphorylation status of CREB; assay type: in vivo; details: mice with isoproterenol-induced cardiac hypertrophy
Description: Western Blots. The antibodies for Adra1b and GAPDH were purchased from Santa Cruz Biochemical Co. (Santa Cruz, Calif.). All other antibodies were purchased from Cell Signaling Technology, and Western blot analysis was performed as previously described (21). Briefly, equal amounts of total protein were loaded and separated on sodium dodecyl sulfate (SDS)—10% polyacrylamide gels and then transferred to nitrocellulose membranes. Membranes were blocked with 5% milk and washed in 1× Tween (0.1%)—Tris-buffered saline (TTBS) three times for 5 minutes each. Primary antibodies diluted 1:1000 in 5% milk or bovine serum albumin (BSA) (prepared in 1×TTBS) were allowed to incubate overnight at 4° C. After washing, horseradish peroxidase (HRP)-conjugated secondary antibody (Cell Signaling Technology) was diluted 1:2000 in 5% milk and applied to membranes. Subsequently, membranes were washed and a chemiluminescence substrate (Pierce, Rockford Ill.) was applied and allowed to incubate at room temperature for 5 minutes.

[4] = test system: adenylate cyclase; details: by inhibiting adenylate cyclase; cited from earlier work
[5] = test system: Histone Deacetylase; details: cited from earlier work
[6] = test system: positive chronotropic effect induced by isoproterenol; assay: Heart rate of isoproterenol-treated mice; assay type: in vivo; details: day 9 of treatment, vs isoproterenol-only mice; n=5; FIG. 5
Description: as §1
Doxycycline was given in drinking water at 6 mg mL^−1 (Sigma Aldrich) containing 5% sucrose unless specified otherwise. Control animals were given 5% sucrose water. […] Briefly, chow was crunched in powder and then mixed with carbamazepine. […]
The heart rates of the mice were measured before induction of cardiac hypertrophy and after treatment on day 9, which was 1 day before they were sacrificed. […] Heart rates were measured before the experiment (t0) and 1 day before the sacrifice. […]

[7] = test system: cardiac gene expression; assay: Real-time quantitative RT-PCR of heart RNA; assay type: in vivo, mice; set-up: key to Oncostatin receptor (Osmr), Real-time RT-PCR: Ind/Red (Induced/reduced) are used instead of fold-changes where no transcript was detected in one of the two samples being compared; Ind/Red (Induced/reduced) are used instead of fold-changes where no transcript was detected in one of the two samples being compared; details: drug + isoproterenol vs isoproterenol only; for Oncostatin receptor (Osmr), Real-time RT-PCR: no transcript detected in one of the two samples
Description: Real-time reverse transcriptase-polymerase chain reaction (RT-PCR). Real-time quantitative RT-PCR was performed in the iCycler iQ multi-Color real-time PCR detection system (Bio-Rad, Hercules, Calif.) using SYBR Green I dye (Qiagen, Valencia, Calif.) as described by the manufacturer. Briefly, 100 ng of RNA was placed into a 25 μl reaction volume containing 2.5 μl of each primer set (Quantitect Primer Assays, Qiagen), 12.5 μl SYBER Green PCR master mix, and 0.25 μl reverse transcriptase. A typical protocol included reverse transcription at 50° C. for 30 minutes and a denaturation step at 95° C. for 15 minutes followed by 35 cycles with 94° C. denaturation for 15 seconds, 55 C annealing for 30 seconds and 72 C extension for 30 seconds. Detection of the fluorescent product was performed at the end of the extension period at 60° C. for 20 seconds. To confirm amplification specificity, the PCR products were subjected to a melting curve analysis. […] Targets were normalized to reactions performed using Quantitect GAPDH primer assay (Qiagen), and fold change was determined using the comparative threshold method (20).

[8] = doxycycline co-administered with carbamazepine; cited from earlier work

SMILES | Oncostatin receptor (Osmr), Real-time RT-PCR [7] | Cyclin-dependent kinase inhibitor 1A (p21) (Cdkn1a), Real-time RT-PCR FC ([7]; normalized to GAPDH) [FC] | Cytokine inducible SH2-containing protein 3 (Socs3), Real-time RT-PCR FC ([7]; normalized to GAPDH) [FC] | GATA binding protein 4 (Gata4), Real-time RT-PCR FC ([7]; normalized to GAPDH) [FC] | Matrix metalloproteinase 3 (Mmp3), Real-time RT-PCR FC ([7]; normalized to GAPDH) [FC] | NADPH oxidase 4 (Nox4), Real-time RT-PCR FC ([7]; normalized to GAPDH) [FC] | Phospholipase A2 group VII (platelet-activating factor acetylhydrolase, plasma) (Pla2g7), Real-time RT-PCR FC ([7]; normalized to GAPDH) [FC] | S100 calcium binding protein A8 (calgranulin A) (S100a8), Real-time RT-PCR FC ([7]; normalized to GAPDH) [FC] | SET and MYND domain containing 1 (Smyd1), Real-time RT-PCR FC ([7]; normalized to GAPDH) [FC] | Serine protease inhibitor 2-2 (Spi2-2) (Serpin3n), Real-time RT-PCR FC ([7]; normalized to GAPDH) [FC] | Transformation related protein 53 inducible nuclear protein 1 (Trp53inp1), Real-time RT-PCR FC ([7]; normalized to GAPDH) [FC] | further results
NC(=O)N1c2ccccc2C=Cc2ccccc21 [carbamazepine] | Red | −2.5 | −4.3 | 2.0 | −2.5 | −3.5 | −3.5 | −2.1 | 3.3 | −13.9 | −3.0 | hypertrophic phenotype, heart cross sections (histology) ([1]; isoproterenol mice, H&E cross sections, FIG. 2): structure that is relatively well preserved; also recorded: reduced the hypertrophic phenotype; Heart to Body weights ratio ([1]; isoproterenol mice, 10 days, doxycycline 10 mg/mL in 7% sucrose water, carbamazepine […] in chow, FIG. 3, carbamazepine vs control P<0.01): significantly decreased; Heart to Tibia length ratio ([1]; isoproterenol mice, carbamazepine in chow or doxycycline in water vs no drug, FIG. 1, carbamazepine vs control P<0.0001): significantly lower; also recorded: significantly decreased; heart weight ([1]; single isoproterenol and carbamazepine treated mouse, FIG. 2C (untreated isoproterenol mouse 0.1800, wild type 0.1305)): 0.1415 grams; blood pressure and heart rates ([2]; epileptic patients): lower blood pressure and heart rates; cardiovascular toxic effects ([2]; in vivo): no cardiovascular toxic effects; levels of phosphorylated CREB [3]: Almost no phosphorylated CREB was detected; basal and forskolin-stimulated cAMP production [4]: abrogate both basal and forskolin-stimulated cAMP production; inhibition of Histone Deacetylase (HDAC) [5]: inhibit Histone Deacetylase; heart rate [6]: significantly lower heart rates; also recorded: attenuation of the positive chronotropic effect
C[C@H]1c2cccc(O)c2C(=O)C2=C(O)[C@]3(O)C(=O)C(C(N)=O)=C(O)[C@@H](N(C)C)[C@@H]3[C@@H](O)[C@@H]21 [doxycycline] | Red | −7.0 | −4.0 | 4.9 | −3.5 | −4.0 | −1.9 | −181.0 | 1.6 | −3.8 | −1.9 | half-life [8]: shorter; Cyclin G2 (Ccng2), Real-time RT-PCR FC ([7]; normalized to GAPDH): −5.7 FC; DNA-damage-inducible transcript 4 (Ddit4), Real-time RT-PCR FC ([7]; normalized to GAPDH): −5.7 FC; Gem GTPase (Gem), Real-time RT-PCR FC ([7]; normalized to GAPDH): −1.8 FC; Lipocalin 2 (Lcn2), Real-time RT-PCR FC ([7]; normalized to GAPDH): −9.9 FC; Metallothionein 1 (MT2), Real-time RT-PCR FC ([7]; normalized to GAPDH): −14.9 FC; S100 calcium binding protein A9 (calgranulin B) (S100a9), Real-time RT-PCR FC ([7]; normalized to GAPDH): −104.0 FC; Tubulin, alpha 4 (Tuba4), Real-time RT-PCR FC ([7]; normalized to GAPDH): 36.8 FC
